Values belong to the compound of their own block, whether it stands above or below them.
Legend:
[1] = target: T1, Amine oxidase [flavin-containing] B (Homo sapiens, UniProt P27338); conditions: 1 h, read-out: INH
T1 sequence (P27338 whole entry): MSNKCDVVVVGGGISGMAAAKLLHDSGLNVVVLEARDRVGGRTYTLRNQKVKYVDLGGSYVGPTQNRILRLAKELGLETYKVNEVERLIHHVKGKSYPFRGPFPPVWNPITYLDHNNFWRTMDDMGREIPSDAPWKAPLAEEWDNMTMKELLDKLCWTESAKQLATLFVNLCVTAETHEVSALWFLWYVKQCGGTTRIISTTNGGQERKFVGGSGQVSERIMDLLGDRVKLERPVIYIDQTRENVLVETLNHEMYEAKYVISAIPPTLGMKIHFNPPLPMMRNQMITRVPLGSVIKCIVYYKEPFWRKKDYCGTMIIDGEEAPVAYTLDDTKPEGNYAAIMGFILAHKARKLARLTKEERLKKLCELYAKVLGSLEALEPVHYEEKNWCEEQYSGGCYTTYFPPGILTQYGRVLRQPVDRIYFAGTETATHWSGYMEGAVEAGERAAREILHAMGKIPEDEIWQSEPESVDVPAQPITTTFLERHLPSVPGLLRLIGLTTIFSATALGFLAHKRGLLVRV
Description: Inhibition of MAOB (unknown origin) using kynuramine as substrate at 10 uM after 1 hr by fluorescence assay relative to control

[2] = target: T2, Amine oxidase [flavin-containing] A (Homo sapiens, UniProt P21397); conditions: 1 h, read-out: INH
T2 sequence (P21397 whole entry): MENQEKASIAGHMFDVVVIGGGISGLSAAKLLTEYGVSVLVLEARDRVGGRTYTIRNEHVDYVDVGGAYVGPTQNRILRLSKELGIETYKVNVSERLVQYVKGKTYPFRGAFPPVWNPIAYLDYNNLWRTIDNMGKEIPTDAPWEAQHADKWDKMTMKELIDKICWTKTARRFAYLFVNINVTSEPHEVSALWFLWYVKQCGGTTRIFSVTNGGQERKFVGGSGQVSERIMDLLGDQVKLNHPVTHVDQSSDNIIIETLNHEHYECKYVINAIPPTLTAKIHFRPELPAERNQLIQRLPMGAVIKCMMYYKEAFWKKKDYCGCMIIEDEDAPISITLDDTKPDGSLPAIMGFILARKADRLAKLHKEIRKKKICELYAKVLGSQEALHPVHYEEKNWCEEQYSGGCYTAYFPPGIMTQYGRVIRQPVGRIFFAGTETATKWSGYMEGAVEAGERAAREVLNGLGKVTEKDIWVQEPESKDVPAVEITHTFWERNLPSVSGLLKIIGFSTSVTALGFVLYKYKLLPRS
Description: Inhibition of MAOA (unknown origin) using kynuramine as substrate at 10 uM after 1 hr by fluorescence assay relative to control

[3] = target: T1, Amine oxidase [flavin-containing] B; conditions: 1 h, read-out: INH; remark: listed apart in the source
Description: Inhibition of MAOB (unknown origin) using kynuramine as substrate at 100 uM after 1 hr by fluorescence assay relative to control

[4] = target: T3, Lysine-specific histone demethylase 1A (Homo sapiens, UniProt O60341); assay: Inhibition of LSD1 (unknown origin) expressed in Sf9 cells using H3K4(me2) as substrate at 200 uM preincubated for 30 mins prior to substrate addition measured after 90 mins by horseradish peroxidase assay relative to control
[5] = target: T3, Lysine-specific histone demethylase 1A; assay: biochemical; assay type: cell-based, Sf9
Description: Inhibition of LSD1 (unknown origin) expressed in Sf9 cells using H3K4(me2) as substrate preincubated for 30 mins prior to substrate addition measured after 90 mins by horseradish peroxidase assay

[6] = target: T1, Amine oxidase [flavin-containing] B; assay: Inhibition of MAOB (unknown origin) using kynuramine as substrate after 1 hr by fluorescence assay
[7] = target: T2, Amine oxidase [flavin-containing] A; conditions: 1 h, read-out: INH; remark: listed apart in the source
Description: Inhibition of MAOA (unknown origin) using kynuramine as substrate at 100 uM after 1 hr by fluorescence assay relative to control

[8] = target: T1, Amine oxidase [flavin-containing] B; conditions: 1 h, read-out: INH; remark: listed apart in the source
Description: Inhibition of MAOB (unknown origin) using kynuramine as substrate at 500 uM after 1 hr by fluorescence assay relative to control

[9] = target: T2, Amine oxidase [flavin-containing] A; assay: Inhibition of MAOA (unknown origin) using kynuramine as substrate after 1 hr by fluorescence assay

inhibition at 10 µM [1]: 100%
SMILES: C#CCN(C)CC(O)COc1ccc2cc(Br)ccc2c1 (stereo unspecified)

inhibition at 10 µM [1]: 94%
SMILES: OC(CNC1CC1)COc1ccc2ccccc2c1 (stereo unspecified)

inhibition at 10 µM [1]: 19%
inhibition at 10 µM [2]: 65%
SMILES: C#CCNCC(O)COc1ccc2ccccc2c1 (stereo unspecified)

inhibition at 10 µM [1]: 100%
SMILES: C#CCN(C)CC(O)COc1ccc(-c2ccccc2)cc1 (stereo unspecified)

inhibition at 100 µM [3]: 27%
inhibition [4]: 36.3%
inhibition at 10 µM [2]: 5%
SMILES: C#CCNCC(O)COc1ccccc1-c1ccccc1 (stereo unspecified)

inhibition at 10 µM [1]: 29%
SMILES: C#CCN(C)CC(O)COc1ccc2ccccc2c1 (stereo unspecified)

inhibition at 10 µM [1]: 100%
inhibition at 10 µM [2]: 100%
SMILES: OC(CNC1CC1)COc1ccc(-c2ccccc2)cc1 (stereo unspecified)

inhibition at 10 µM [1]: 100%
IC50 [5]: 111 µM
inhibition at 10 µM [2]: 100%
SMILES: OC(CNC1CC1)COc1ccc2cc(Br)ccc2c1 (stereo unspecified)

IC50 [6]: 5.7 µM
SMILES: C#CCNCCCOc1cccc(C(=O)NCc2ccccc2)c1

inhibition at 100 µM [3]: 32%
SMILES: C#CCN(C)CC(O)COc1cccc2ccccc12 (stereo unspecified)

SMILES: C#CCNCCCOc1cccc(NC(=O)c2ccccc2)c1
inhibition at 10 µM [2]: 62%

inhibition at 100 µM [7]: 100%
IC50 [6]: 17 µM
SMILES: C#CCNCCCOc1cccc(C(=O)NC(C)C)c1

inhibition at 100 µM [3]: 45%
SMILES: OC(CNC1CC1)COc1ccccc1-c1ccccc1 (stereo unspecified)

inhibition at 100 µM [7]: 45%
inhibition at 500 µM [8]: 51%
IC50 [5]: 132 µM
SMILES: CC#CCNCCCC[C@H](NC(=O)c1ccccc1)C(=O)OC(C)(C)C

inhibition at 100 µM [7]: 36%
SMILES: C#CCN(C)CCCC[C@H](NC(=O)OCc1ccccc1)C(=O)OCc1ccccc1

inhibition at 500 µM [8]: 67%
SMILES: C#CCNCCCC[C@H](NC(=O)OCc1ccccc1)C(=O)OCc1ccccc1

IC50 [5]: 144 µM
SMILES: C#CCNCCCC[C@H](NC(=O)c1ccccc1)C(=O)OC(C)(C)C

inhibition at 100 µM [3]: 30%
SMILES: C#CCN(C)CC(O)COc1ccccc1-c1ccccc1 (stereo unspecified)

IC50 [6]: 0.06 µM
IC50 [9]: 0.55 µM
SMILES: C#CCNCC(O)COc1ccc(-c2ccccc2)cc1 (stereo unspecified)

IC50 [6]: 0.1 µM
inhibition at 10 µM [2]: 73%
SMILES: C#CCN(C)CCCOc1cccc(NC(=O)c2ccccc2)c1

— ChEMBL document CHEMBL2424529, “Nonpeptidic propargylamines as inhibitors of lysine specific demethylase 1 (LSD1) with cellular activity” (J Med Chem, 2013)
